# Assays:
# EGFR (h) = EGFR (h) (Homo sapiens, UniProt P00533); test: Kinase profiling, glass-fiber filter technology: EGFR; assay type: biochemical; details: test concentration of 10^−6 M; read-out: EGFR inhibition score
# Protocol: (§1) The in vitro inhibition of a panel of kinases was assessed using the glass-fiber filter technology as described by Davies, S. P. et al., Biochem J. (2000), 351; p. 95-105.
# (§2) In the glass-fiber filter technology the activity of the kinase of interest is measured using an appropriate substrate that is incubated with the aforementioned kinase protein in the presence of (^33P) radiolabeled ATP. (^33P) Phosporylation of the substrate is subsequently measured as radioactivity bound on a glassfiber-filter.
# (§3) All kinases are pre-diluted to a 10× working concentration prior to addition into the assay. The composition of the dilution buffer for each kinase is detailed below.
# (§4) All substrates are dissolved and diluted to working stocks in de-ionised water.
# (§5) In a final reaction volume of 25 μl, EGFR (h) (5-10 mU) is incubated with 8 mM MOPS pH 7.0, 0.2 mM EDTA, 10 mM MnCl2, 0.1 mg/ml poly(Glu, Tyr) 4:1, 10 mM MgAcetate and [γ-^33P-ATP] (specific activity approx. 500 cpm/pmol, concentration as required). The reaction is initiated by the addition of the MgATP mix. After incubation for 40 minutes at room temperature, the reaction is stopped by the addition of 5 μl of a 3% phosphoric acid solution. 10 μl of the reaction is then spotted onto a Filtermat A and washed three times for 5 minutes in 75 mM phosphoric acid and once in methanol prior to drying and scintillation counting.
# Fgr human = Fgr human (Homo sapiens, UniProt P09769); test: Kinase profiling, glass-fiber filter technology: Fgr; assay type: biochemical; details: test concentration of 10^−6 M; read-out: Fgr inhibition score
# Chain of Fgr human (P09769 whole entry): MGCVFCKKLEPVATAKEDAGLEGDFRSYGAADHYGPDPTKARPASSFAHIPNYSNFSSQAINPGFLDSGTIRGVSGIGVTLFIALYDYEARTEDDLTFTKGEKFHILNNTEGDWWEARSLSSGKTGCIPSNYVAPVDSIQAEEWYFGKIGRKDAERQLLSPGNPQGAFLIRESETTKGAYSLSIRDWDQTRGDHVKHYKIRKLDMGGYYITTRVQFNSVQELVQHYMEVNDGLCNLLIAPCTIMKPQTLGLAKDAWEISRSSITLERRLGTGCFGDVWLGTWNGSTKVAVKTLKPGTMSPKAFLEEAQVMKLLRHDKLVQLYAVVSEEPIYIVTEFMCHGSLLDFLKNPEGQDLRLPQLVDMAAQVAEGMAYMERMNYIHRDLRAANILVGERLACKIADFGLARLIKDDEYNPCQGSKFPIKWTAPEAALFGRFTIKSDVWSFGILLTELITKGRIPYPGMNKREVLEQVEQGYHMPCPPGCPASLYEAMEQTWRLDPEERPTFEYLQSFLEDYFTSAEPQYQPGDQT
# Protocol: as §1, §2, §3, §4
# as §5, with “Fgr human” for “EGFR (h)”, “EDTA,” for “EDTA, 10 mM MnCl2,”
# Abl (h) = Abl (h) (Homo sapiens, UniProt P00519); test: Kinase profiling, glass-fiber filter technology: Abl; assay type: biochemical; details: test concentration of 10^−6 M; read-out: Abl inhibition score
# Chain of Abl (h) (P00519 whole entry): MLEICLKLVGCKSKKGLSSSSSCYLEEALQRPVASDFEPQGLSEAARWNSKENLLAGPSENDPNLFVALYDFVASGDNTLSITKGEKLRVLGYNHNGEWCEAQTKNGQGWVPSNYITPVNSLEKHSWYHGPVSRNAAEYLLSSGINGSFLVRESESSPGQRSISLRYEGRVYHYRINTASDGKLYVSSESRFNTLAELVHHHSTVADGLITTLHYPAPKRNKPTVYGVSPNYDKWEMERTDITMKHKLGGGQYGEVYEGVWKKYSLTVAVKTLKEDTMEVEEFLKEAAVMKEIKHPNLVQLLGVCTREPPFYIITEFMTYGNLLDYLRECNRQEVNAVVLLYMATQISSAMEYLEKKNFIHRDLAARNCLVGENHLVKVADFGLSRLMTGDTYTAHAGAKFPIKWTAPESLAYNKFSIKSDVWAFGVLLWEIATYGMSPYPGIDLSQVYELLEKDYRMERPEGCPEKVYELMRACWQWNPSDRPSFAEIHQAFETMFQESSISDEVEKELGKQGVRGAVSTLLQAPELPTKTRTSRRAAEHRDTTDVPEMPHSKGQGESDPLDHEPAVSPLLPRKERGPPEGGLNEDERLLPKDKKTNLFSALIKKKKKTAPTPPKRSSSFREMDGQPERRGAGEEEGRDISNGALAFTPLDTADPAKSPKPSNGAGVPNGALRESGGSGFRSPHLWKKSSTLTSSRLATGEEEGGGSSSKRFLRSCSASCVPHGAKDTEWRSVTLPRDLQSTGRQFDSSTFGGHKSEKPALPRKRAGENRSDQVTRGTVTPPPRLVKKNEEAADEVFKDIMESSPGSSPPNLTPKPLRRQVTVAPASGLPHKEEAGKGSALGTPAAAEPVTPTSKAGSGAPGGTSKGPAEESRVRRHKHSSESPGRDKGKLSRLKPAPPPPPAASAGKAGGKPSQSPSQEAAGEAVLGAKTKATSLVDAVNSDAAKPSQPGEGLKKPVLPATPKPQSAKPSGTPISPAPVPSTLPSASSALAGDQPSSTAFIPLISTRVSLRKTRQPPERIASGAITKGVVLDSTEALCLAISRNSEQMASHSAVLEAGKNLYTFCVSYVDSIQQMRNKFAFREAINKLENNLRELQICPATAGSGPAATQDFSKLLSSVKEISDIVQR
# Protocol: as §1, §2, §3, §4
# as §5, with “Abl” for “EGFR”, “50 μM EAIYAAPFAKKK,” for “10 mM MnCl2, 0.1 mg/ml poly(Glu, Tyr) 4:1,”, “P30 filtermat” for “Filtermat A”
# CDK5/p35 human = CDK5/p35 human (Homo sapiens, UniProt Q00535); test: Kinase profiling, glass-fiber filter technology: CDK5/p35; assay type: biochemical; details: test concentration of 10^−6 M; read-out: CDK5/p35 inhibition score
# Chain of CDK5/p35 human (Q00535 whole entry): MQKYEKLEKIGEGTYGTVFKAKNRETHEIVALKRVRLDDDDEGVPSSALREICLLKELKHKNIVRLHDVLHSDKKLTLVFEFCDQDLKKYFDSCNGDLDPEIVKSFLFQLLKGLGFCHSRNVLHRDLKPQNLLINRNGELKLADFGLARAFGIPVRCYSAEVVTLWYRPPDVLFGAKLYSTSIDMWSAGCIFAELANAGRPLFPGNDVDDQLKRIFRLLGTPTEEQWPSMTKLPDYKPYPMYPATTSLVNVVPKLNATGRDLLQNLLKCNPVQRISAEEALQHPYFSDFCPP
# Chain of CDK5/p35 human (Q15078 whole entry partner): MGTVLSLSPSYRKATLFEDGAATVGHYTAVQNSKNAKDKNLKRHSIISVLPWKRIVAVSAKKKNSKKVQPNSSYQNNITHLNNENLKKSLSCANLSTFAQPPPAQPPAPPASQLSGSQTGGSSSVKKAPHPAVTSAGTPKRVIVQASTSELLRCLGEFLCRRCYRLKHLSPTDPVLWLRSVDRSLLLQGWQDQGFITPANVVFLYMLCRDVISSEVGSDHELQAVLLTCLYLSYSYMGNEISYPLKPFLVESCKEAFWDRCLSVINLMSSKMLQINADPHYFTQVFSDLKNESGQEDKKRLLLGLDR
# Protocol: as §1, §2, §3, §4
# as §5, with “CDK5/p35 human” for “EGFR (h)”, “EDTA,” for “EDTA, 10 mM MnCl2,”, “histone H1,” for “poly(Glu, Tyr) 4:1,”, “P30 filtermat” for “Filtermat A”
# CDK6/cyclinD3 human = CDK6/cyclinD3 human (Homo sapiens, UniProt Q00534); test: Kinase profiling, glass-fiber filter technology: CDK6/cyclinD3; assay type: biochemical; details: test concentration of 10^−6 M; read-out: CDK6/cyclinD3 inhibition score
# Chain of CDK6/cyclinD3 human (Q00534 whole entry): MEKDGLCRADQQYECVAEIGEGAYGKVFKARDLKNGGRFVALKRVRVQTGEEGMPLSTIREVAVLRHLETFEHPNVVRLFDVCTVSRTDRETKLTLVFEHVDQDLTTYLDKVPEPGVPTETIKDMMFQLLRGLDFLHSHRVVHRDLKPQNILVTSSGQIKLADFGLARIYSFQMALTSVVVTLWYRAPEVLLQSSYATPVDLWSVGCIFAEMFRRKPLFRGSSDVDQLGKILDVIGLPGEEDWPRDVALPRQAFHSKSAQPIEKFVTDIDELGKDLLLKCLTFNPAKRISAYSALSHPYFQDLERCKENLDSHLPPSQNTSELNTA
# Chain of CDK6/cyclinD3 human (P30281 whole entry partner): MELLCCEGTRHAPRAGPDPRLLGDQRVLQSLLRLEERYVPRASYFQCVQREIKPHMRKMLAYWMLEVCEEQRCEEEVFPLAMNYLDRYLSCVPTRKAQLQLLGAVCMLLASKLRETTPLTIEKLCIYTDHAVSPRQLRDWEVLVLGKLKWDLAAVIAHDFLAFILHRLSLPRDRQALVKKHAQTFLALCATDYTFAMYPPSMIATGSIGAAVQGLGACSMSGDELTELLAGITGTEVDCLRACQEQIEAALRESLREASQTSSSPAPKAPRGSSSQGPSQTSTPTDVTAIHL
# Protocol: as §1, §2, §3, §4
# as §5, with “CDK6/cyclinD3 human” for “EGFR (h)”, “EDTA,” for “EDTA, 10 mM MnCl2,”, “histone H1,” for “poly(Glu, Tyr) 4:1,”, “P30 filtermat” for “Filtermat A”
# Chain of EGFR (h) (P00533 25-1210): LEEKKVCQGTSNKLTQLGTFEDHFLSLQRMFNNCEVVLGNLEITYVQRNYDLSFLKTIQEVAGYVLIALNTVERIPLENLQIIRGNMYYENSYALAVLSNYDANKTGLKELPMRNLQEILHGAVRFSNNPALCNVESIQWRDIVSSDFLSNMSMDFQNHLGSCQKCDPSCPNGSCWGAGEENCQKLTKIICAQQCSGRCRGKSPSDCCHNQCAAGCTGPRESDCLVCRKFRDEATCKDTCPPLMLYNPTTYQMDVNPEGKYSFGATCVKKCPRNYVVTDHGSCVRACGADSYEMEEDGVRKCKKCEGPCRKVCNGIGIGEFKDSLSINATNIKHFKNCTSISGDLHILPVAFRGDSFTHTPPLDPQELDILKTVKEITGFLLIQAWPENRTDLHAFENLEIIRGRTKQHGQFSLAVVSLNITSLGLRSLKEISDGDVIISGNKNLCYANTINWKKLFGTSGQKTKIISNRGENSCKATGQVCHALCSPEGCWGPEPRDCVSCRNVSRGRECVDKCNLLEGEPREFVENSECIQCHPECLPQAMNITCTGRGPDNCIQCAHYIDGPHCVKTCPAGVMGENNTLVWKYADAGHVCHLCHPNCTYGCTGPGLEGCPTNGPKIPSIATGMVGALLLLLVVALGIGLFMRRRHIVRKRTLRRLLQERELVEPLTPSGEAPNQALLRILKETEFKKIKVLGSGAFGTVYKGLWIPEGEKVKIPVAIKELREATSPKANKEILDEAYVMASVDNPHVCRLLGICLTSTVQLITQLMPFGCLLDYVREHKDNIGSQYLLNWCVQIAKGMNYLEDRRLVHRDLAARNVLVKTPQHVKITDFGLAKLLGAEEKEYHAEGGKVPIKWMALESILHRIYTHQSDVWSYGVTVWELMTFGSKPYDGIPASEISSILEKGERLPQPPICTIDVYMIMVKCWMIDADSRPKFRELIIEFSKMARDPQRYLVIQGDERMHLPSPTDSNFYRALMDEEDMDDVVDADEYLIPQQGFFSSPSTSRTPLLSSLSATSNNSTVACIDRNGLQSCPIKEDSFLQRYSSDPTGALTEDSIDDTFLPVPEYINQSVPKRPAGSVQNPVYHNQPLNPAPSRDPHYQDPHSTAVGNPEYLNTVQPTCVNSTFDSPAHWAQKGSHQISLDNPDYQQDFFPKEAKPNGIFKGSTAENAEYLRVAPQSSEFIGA
SMILES,inhibition at 1 µM (EGFR (h)),inhibition at 1 µM (Fgr human),melting point,inhibition at 1 µM (Abl (h)),inhibition at 1 µM (CDK5/p35 human),inhibition at 1 µM (CDK6/cyclinD3 human)
CC(=O)OCCN(C)CCCOc1cc2ncnc3c2cc1OCCCNC(=O)[C@H](C)N(C)Cc1cc(F)c(Cl)cc1N3 [Compound 2],> 80%,10 to 30%,–,–,–,–
CC(=O)N(CCO)CCCOc1cc2ncnc3c2cc1OCCCNC(=O)[C@H](C)N(C)Cc1cc(F)c(Cl)cc1N3 [Compound 5],> 80%,10 to 30%,–,–,–,–
CN1CCCCCOc2cc3c(ncnc3cc2OC[C@@H](O)CN2CCS(=O)(=O)CC2)Nc2cc(Br)ccc2C1 [Compound 12],> 80%,60 to 80%,–,–,–,–
CC(=O)NCCNCCCOc1cc2ncnc3c2cc1OCCCCCN(C)Cc1ccc(Br)cc1N3 [Compound 13],> 80%,> 80%,–,–,–,–
CN1CCCCCOc2cc3c(ncnc3cc2OCCCNCCS(C)(=O)=O)Nc2cc(Br)ccc2C1 [Compound 14],> 80%,60 to 80%,–,–,–,–
COc1cc2ncnc3c2cc1OCCCN(CCN1CCOCC1)C(=O)CNC(=O)Cc1ccc(Cl)cc1N3 [Compound 15],> 80%,–,–,> 80%,10 to 30%,–
C#Cc1ccc2c(c1)Nc1ncnc3cc(OCCCNCCS(C)(=O)=O)c(cc13)OCCCCCN(C)C2 [Compound 20],–,> 80%,–,–,–,–
C[C@H]1C(=O)NCCCOc2cc3c(ncnc3cc2OCCCN2CCN(C(=O)OC(C)(C)C)CC2)Nc2cc(Cl)c(F)cc2CN1C [Int. 16],> 80%,10 to 30%,–,–,–,–

# The next lines start with the values.
inhibition at 1 µM (EGFR (h)),inhibition at 1 µM (Fgr human),melting point,inhibition at 1 µM (Abl (h)),inhibition at 1 µM (CDK5/p35 human),inhibition at 1 µM (CDK6/cyclinD3 human),SMILES
> 80%,–,112 °C,–,–,–,CC(=O)NCCNCCCOc1cc2ncnc3c2cc1OCCCNC(=O)[C@H](C)N(C)Cc1cc(F)c(Cl)cc1N3 [Compound 4]
> 80%,–,136 °C,> 80%,–,–,CC(=O)NCCN1CCN(CCCOc2cc3ncnc4c3cc2OCCCNC(=O)[C@H](C)N(C)Cc2cc(F)c(Cl)cc2N4)CC1 [Compound 6]
> 80%,10 to 30%,–,–,–,–,CN1CCCCCOc2cc3c(ncnc3cc2OCCCNC(=O)OC(C)(C)C)Nc2cc(Br)ccc2C1 [Compound 11]
> 80%,–,–,> 80%,–,–,CN1CCCCCOc2cc3c(ncnc3cc2OC[C@H](O)CNCCOCCO)Nc2cc(Cl)c(F)cc2C1 [Compound 17]
> 80%,–,–,> 80%,–,–,CN1CCCCCOc2cc3c(ncnc3cc2OCCCNCCS(C)(=O)=O)Nc2cc(Cl)c(F)cc2C1 [Compound 18]
> 80%,60 to 80%,–,–,–,–,CN1CCCCCOc2cc3c(ncnc3cc2OCCCN2CCS(=O)(=O)CC2)Nc2cc(Cl)c(F)cc2C1 [Compound 19]
> 80%,–,–,10 to 30%,–,–,COc1cc2ncnc3c2cc1OCCCN(CCCN1CCOCC1)C(=O)[C@H](CC(C)C)NC(=O)Cc1ccc(Br)cc1N3 [Int. 25]
> 80%,30 to 60%,–,60 to 80%,–,10 to 30%,COCCOCCOc1cc2ncnc3c2cc1OCCCCCN(C)Cc1ccc(Br)cc1N3 [Int. 43]
